Patent US20220041681A1 (MEDIMMUNE LIMITED, priority 2016, published 2022)
Read-outs that look alike come from different tables or passages of the source.

How the values were obtained:
[1] = tested on: overweight or obese subjects with type 2 diabetes mellitus (T2DM); conditions: human, in vivo
Method: (§5) A Phase 1/2, randomized, double-blind, multiple-ascending dose study is performed in two parts (A and B).
Part A consists of 3 cohorts.
Part B consists of 1 cohort.
(§6) The initial dose is 100 μg. […] The study duration for each subject varies by cohort and consists of an inpatient multiple-ascending dose (MAD) or up-titration evaluation period (beginning on Day −2 and ending after Day 8 for Cohort 1, Day 12 for Cohort 2, Day 16 for Cohort 3, and Day 13 for Cohort 4) and an outpatient follow-up period.
(§7) The subject remains in the facility for observation and safety tests including ECGs, telemetry, monitoring of vital signs, and assessments of the injection site for potential reactions throughout the day and during the treatment period.
(§8) Mixed-meal test (MMT) procedures are performed on Day −1 and on the last day of the highest dose level achieved for all cohorts. […] For the MMT, the subject consumes a standardized meal (Ensure Plus %) within 5 minutes, and timed serial blood samples are obtained for measurement of glucose and parameters related to glucose metabolism just before and through 240 minutes after consumption of the standandized meal. During the inpatient period, finger prick glucose samples are collected 15 minutes prior to and 2 hours after breakfast, mid-day, and evening meals, and prior to going to bed.
(§9) Cohort 4 subjects are re-admitted for an overnight inpatient stay at the end of the at-home self-administration period to collect the final endpoints.
(§10) Subjects are discharged from the unit the day after the final dose is administered in the study.
(§11) Missing measurements at the end of treatment are replaced with the last available measurement. The comparison is conducted at a two-sided significance level of 0.1.

[2] = Stability testing of peptides in plasma; format: in vitro ADME, mouse; conditions: mouse, 24 h, 2 μmol/L
Method: (§1) Stability testing of peptides in plasma.
(§2) Stock solutions of the peptides of about 200 μmol/L was prepared by weighing solid peptide into a Eppendorf Low Bind Tube and dissolved in DMSO. 10 μL of stock solutions were added to 990 μL of plasma in an Eppendorf Low Bind Tube, resulting in initial concentrations of the peptides in plasma of about 2 μmol/L. The frozen blank plasma from human, rat and mouse had been thawed and heated to a temperature of 37° C. before addition of the stock solution. The spiked plasma samples were gently mixed and allowed to equilibrate for about 5 minutes before start of experiment. The plasma samples were incubated for 48 hours in a GalaxyR CO2 incubator at 37° C. Sampling (30 μL) was performed at 0, 1, 2, 6.5, 17, 24 and 48 hours. The samples were stored at −70° C. until analysis.
(§3) Plasma samples were assayed as follows. The 30 μL plasma samples were protein precipitated with […] of cold ethanol in a 96-well low bind plate (Eppendorf Protein LoBind). After mixing and centrifugation, 100 μl the supernatant was transferred to a new plate and 1 μl was injected onto an analytical column.
(§4) The analysis was performed using a μLC-system (LC Exigent μLC) coupled to a medium high resolution mass spectrometer (Perkin Elmer PenTOF) with positive electrospray ionisation. The analytical column was a 5 cm, 1 mm Agilent Poroshell (custom made) C18-column with a particle size of 2.7 μm. Flow: 0.1 ml/min using a slow reversed phase gradient. Mobile phases used were acetonitrile and water containing 0.1% formic acid.
The resulting data were manually evaluated for the following degradation products: +1 product (acid) and the DPP IV-cleavage product. Products with +1 mass may arise from deamidation at amide groups of glutamine or at the C-terminus. Cleavage products arise from the action of the protease DPP IV in plasma. Both the degradation of the peptides and formation of peptide products were reported in percentage of the initial peptide concentration. Peaks were integrated and % remaining peptide was calculated: (peak area/peak area 0H)*100. […]

[3] = tested on: overweight or obese subjects with type 2 diabetes mellitus (T2DM); experiment: Phase 1/2 multiple-ascending dose study Part I (Cohorts 1-4)
Method: as §5
Part A consists of 3 cohorts.
Part B consists of 1 cohort.
as §6, §7, §8, §9, §10, §11

[4] = tested on: diet induced obesity (DIO) mouse model; experiment: Diet induced obesity (DIO) mouse model, study B; format: in vivo; conditions: for FGF 21 / HOMA / Hepatic TG / Plasma Cholesterol / Plasma NEFA / Plasma TG: day 14; for Glucose / Insulin: day 14, 4-hour fasting
Method: The body weight of the animals was monitored daily throughout the dosing period. At day 14, blood samples for the measurement of plasma glucose and insulin from conscious mice were obtained after a 4-hour fasting period. Mice were then anaesthetized using isoflourane and terminal blood was collected from the capillary bed behind the eye. The following parameters were measured: blood chemistry measurements of triglycerides, total cholesterol, non-esterified fatty acids (NEFA), beta-hydroxybutyrate and fibroblast growth factor 21 (FGF21) (Table 16 and Table 17 below).

[5] = format: in vitro ADME, human; conditions: human, 24 h, 2 μmol/L
Method: as §1, §2, §3, §4
The resulting data were manually evaluated for the following degradation products: +1 product (acid) and the DPP IV-cleavage product. Products with +1 mass may arise from deamidation at amide groups of glutamine or at the C-terminus. Cleavage products arise from the action of the protease DPP IV in plasma. Both the degradation of the peptides and formation of peptide products were reported in percentage of the initial peptide concentration. Peaks were integrated and % remaining peptide was calculated: (peak area/peak area 0H)*100. Levels of deamidation and DPP IV cleavage were low for G797 and G933.

[6] = Phase 1 single-ascending dose study; conditions: human, plasma, subcutaneous, 300 μg
human serum albumin = human serum albumin (Homo sapiens, UniProt P02768); experiment: Fraction of free peptide calculated from variation in cAMP generation with HSA concentration; conditions: human
From the text: Data was transformed to % Delta F as described in manufacturer's guidelines and analysed by 4-parameter logistic fit to determine EC50 values. […] To compare the balance of activities at the GLP1R and GlucR between different peptides and across different conditions, these can be correlated using the calculation below, where the EC50's are related to those of the natural ligands.

[7] = Cohort 4, 200 ug, n = 25 active

human serum albumin, sequence (P02768 25-609): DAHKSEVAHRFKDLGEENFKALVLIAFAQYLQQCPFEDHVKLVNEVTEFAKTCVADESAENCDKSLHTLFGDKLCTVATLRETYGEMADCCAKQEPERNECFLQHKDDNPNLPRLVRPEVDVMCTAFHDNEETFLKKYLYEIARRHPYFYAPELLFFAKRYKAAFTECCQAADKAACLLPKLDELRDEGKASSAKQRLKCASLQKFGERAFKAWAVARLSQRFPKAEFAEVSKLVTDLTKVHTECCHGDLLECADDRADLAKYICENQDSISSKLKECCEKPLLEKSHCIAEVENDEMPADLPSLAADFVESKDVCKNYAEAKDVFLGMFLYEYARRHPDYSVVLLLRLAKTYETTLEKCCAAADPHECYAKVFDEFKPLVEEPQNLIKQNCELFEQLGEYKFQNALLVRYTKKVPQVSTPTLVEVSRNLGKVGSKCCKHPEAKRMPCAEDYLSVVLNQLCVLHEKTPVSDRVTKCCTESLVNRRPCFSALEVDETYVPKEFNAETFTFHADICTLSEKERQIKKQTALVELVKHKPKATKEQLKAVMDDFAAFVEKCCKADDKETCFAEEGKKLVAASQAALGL

## CCCCCCCCCCCCCCCC(=O)N[C@@H](CCC(=O)NCCCC[C@H](NC(=O)[C@H](CC(=O)O)NC(=O)[C@H](CO)NC(=O)C(NC(=O)[C@H](Cc1ccccc1)NC(=O)C(NC(=O)CNC(=O)[C@H](CCC(N)=O)NC(=O)[C@H](CO)NC(=O)[C@@H](N)Cc1cnc[nH]1)[C@@H](C)O)[C@@H](C)O)C(=O)N[C@@H](CO)C(=O)N[C@@H](CCC(=O)O)C(=O)N[C@@H](Cc1ccc(O)cc1)C(=O)N[C@@H](CC(C)C)C(=O)N[C@@H](CC(=O)O)C(=O)N[C@@H](CO)C(=O)N[C@@H](CCC(=O)O)C(=O)N[C@@H](CCCNC(=N)N)C(=O)N[C@@H](C)C(=O)N[C@@H](CCCNC(=N)N)C(=O)N[C@@H](CC(=O)O)C(=O)N[C@@H](Cc1ccccc1)C(=O)N[C@H](C(=O)N[C@@H](C)C(=O)N[C@@H](Cc1c[nH]c2ccccc12)C(=O)N[C@@H](CC(C)C)C(=O)N[C@@H](CCC(=O)O)C(=O)N[C@@H](C)C(=O)NCC(=O)NCC(=O)O)C(C)C)C(=O)O (stereo partly shown) [Peptide G933]
[1]
  half-life: 8 to 11 h
[2]
  % stable peptide: 83%
[3]; Cohort 1, 100 ug, n = 6 active
  Fasting Glucose (change): -28.00 mg/dL
  Glucose AUG (change): −27.3
  Weight (change): -1.1 kg
[3]; Cohort 2, 150 ug, n = 6 active
  Fasting Glucose (change): -17.90 mg/dL
  Glucose AUG (change): −8.9
  Weight (change): -0.5 kg
[3]; Cohort 3
  weight differential: more than 2 kg
[3]; Cohort 3, 200 ug, n = 6 active
  Fasting Glucose (change): -43.20 mg/dL
  Glucose AUG (change): −31.6
  Weight (change): -2.4 kg
[3]; Cohort 4
  reduction in liver volume compared to placebo: 0.14 L
[3]; Cohort 4, 200 μg, N = 25
  Death (grade 5 severity): 0
  Subject with at least one G933-related serious event: 0
  Subject with at least one event: 22 (88.8%)
  Subject with at least one event leading to discontinuation of G933: 3 (12.0%)
  Subject with at least one event of ≥ grade 3 severity: 0
  Subject with at least one serious event: 0
[3]; [7]
  Fasting Glucose (change): -31.62 mg/dL
  Glucose AUG (change): −22.5
[3]; Cohort 4, 8 patients
  patients who vomited: 32.0%
[3]; Cohort 4, 13 patients
  patients reporting nausea: 52.0%
[3]; Cohort 4, 41 days
  patients who lost at least 2% of their weight: 84%
  patients who lost at least 5 kg: 44%
  percent weight loss difference between G933 and placebo: 2.47%
  weight loss difference between G933 and placebo: 2.12 kg
[3]; Cohort 4, Day 41
  increase in heart rate: 6.9 bpm
[3]; Cohort 4, after 41 days
  percent of weight lost: about 4.18%
  weight lost: about 3.83 kg
[3]; Cohort 4, after 41 days of treatment
  HbA1c reduction: 0.92%
[3]; Cohort 4, baseline mean […]
  mean HbA1c on day 42: 6.3%
[3]; Cohort 4, up to 200 μg
  mean reduction in glucose AUC from baseline (day 1) to day 41: 38.5%
[3]; Cohorts 1-3 (n=5)
  patients with vomiting: 26%
[3]; Cohorts 1-3, dose dependent trend
  weight loss: up to 2 kg
[3]; across Cohorts 1-3 (100-200 μg QD)
  mixed-meal test glucose AUC reduction: > 40%
[3]; each of Cohorts 1-3
  increase in pulse rate: about 10 bpm
[3]; larger Cohort 4
  Between-subject variability in Cmax: 40-50%
[3]; post baseline, Cohorts 1-3
  anti-G933 antibody: Only one sample was confirmed positive
[3]; smaller cohorts, Parts I and II
  Between-subject variability in Cmax: 20-30%
[4]; 5 nmol/kg sc twice daily for 14 days
  BW day 14 (% change of vehicle mean): −11%
[4]; 5 nmol/kg sc twice daily
  FGF 21: 2682 pg/mL
  HOMA: 3.31
  Hepatic TG: 19.3 g TG/100 g tissue
  Plasma Cholesterol: 2.88 mM
  Plasma NEFA: 0.28 mM
  Plasma TG: 0.89 mM
  Glucose: 6.2 mM
  Insulin: 0.53 nM
[4]; 10 nmol/kg sc twice daily for 14 days
  BW day 14 (% change of vehicle mean): −19%
[4]; 10 nmol/kg sc twice daily
  FGF 21: 4459 pg/mL
  HOMA: 1.98
  Hepatic TG: 14.7 g TG/100 g tissue
  Plasma Cholesterol: 2.32 mM
  Plasma NEFA: 0.27 mM
  Plasma TG: 0.16 mM
  Glucose: 7.2 mM
  Insulin: 0.27 nM
[4]; study B, in words
  body weight over the 14 day dosing period: dose dependent and continuous weight loss
[5]
  % DPP cleaved product/+1 DPP cleaved product: <1%
  % stable peptide: 86%
[5]; rat, mouse
  Levels of deamidation and DPP IV cleavage: low
[6]
  AUC(0-t): 364 ng·h/mL
Human serum albumin
  free peptide at 4.4% HSA: 0.29%
